Consider 14 molecules from US20200262813A1, “1,5,7-TRISUBSTITUTED ISOQUINOLINE DERIVATIVES, PREPARATION THEREOF, AND USE THEREOF IN MEDICINES” (SHANGHAI HAIYAN PHARMACEUTICAL TECHNOLOGY CO., LTD., priority 2016, published 2020).

The target of assay [1] is Recombinant PRC2 (EZH2-Y641F) (Homo sapiens, UniProt Q15910, Y641F). As to the kind of experiment: In vitro methyltransferase activity test (LANCE Ultra).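 Further: compounds tested as an 8-point threefold dilution series, fluorescence read after 1 h detection step at room temperature, IC50 derived from a four-parameter curve fit.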 The following applies: LANCE Ultra detection, 3 hours reaction.
Chain of Recombinant PRC2 (EZH2-Y641F) (Q15910 whole entry Y641F): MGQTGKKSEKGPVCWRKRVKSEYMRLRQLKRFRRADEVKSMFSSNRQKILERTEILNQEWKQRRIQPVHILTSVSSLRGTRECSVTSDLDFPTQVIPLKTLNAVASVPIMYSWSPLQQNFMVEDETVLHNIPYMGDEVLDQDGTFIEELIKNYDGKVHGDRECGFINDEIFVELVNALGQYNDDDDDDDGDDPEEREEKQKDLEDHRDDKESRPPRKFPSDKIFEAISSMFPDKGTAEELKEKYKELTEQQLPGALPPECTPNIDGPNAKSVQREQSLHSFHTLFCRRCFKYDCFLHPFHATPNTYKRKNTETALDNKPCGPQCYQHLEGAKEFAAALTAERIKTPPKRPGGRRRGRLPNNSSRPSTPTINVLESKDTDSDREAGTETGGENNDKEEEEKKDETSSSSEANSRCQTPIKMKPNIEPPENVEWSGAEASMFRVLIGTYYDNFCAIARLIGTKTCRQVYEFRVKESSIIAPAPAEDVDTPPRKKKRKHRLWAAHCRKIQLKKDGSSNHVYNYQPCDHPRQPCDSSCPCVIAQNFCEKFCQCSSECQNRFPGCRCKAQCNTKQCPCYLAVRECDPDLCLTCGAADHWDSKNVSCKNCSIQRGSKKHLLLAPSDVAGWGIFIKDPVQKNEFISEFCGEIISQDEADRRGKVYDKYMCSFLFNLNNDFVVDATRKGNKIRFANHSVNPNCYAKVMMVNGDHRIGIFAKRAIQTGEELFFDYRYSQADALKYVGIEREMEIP
Chain of Recombinant PRC2 (EZH2-Y641F) (O75530 whole entry partner): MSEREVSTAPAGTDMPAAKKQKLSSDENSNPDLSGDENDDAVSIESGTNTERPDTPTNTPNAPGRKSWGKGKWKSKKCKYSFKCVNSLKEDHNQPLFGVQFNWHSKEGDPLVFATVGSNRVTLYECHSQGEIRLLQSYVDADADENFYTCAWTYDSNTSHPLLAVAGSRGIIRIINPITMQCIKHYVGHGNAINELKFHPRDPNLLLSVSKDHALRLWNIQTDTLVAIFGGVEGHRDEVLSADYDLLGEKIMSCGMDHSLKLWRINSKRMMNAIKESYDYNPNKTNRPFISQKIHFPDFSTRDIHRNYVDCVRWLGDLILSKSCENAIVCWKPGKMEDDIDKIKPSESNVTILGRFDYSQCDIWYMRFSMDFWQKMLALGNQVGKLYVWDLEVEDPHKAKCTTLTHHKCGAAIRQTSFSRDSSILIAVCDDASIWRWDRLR
Chain of Recombinant PRC2 (EZH2-Y641F) (Q15022 whole entry partner): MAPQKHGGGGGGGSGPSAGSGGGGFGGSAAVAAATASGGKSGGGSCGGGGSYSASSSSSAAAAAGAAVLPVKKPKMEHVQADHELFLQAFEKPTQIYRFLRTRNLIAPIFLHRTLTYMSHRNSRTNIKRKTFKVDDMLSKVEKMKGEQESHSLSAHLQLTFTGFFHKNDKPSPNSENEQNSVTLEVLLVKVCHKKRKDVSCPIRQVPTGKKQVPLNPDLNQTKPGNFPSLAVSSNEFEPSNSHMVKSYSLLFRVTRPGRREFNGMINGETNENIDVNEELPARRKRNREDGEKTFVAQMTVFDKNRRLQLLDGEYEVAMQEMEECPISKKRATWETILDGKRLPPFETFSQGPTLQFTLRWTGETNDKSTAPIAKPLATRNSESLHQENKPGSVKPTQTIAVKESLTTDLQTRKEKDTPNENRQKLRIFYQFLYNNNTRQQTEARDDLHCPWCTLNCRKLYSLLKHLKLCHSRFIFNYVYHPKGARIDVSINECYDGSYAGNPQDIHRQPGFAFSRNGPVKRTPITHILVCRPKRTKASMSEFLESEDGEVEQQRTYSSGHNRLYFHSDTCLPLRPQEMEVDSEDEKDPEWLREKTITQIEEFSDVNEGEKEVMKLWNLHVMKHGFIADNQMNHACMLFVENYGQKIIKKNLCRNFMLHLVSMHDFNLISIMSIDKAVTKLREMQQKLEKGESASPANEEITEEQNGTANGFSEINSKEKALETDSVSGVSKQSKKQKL
Chain of Recombinant PRC2 (EZH2-Y641F) (Q09028 whole entry partner): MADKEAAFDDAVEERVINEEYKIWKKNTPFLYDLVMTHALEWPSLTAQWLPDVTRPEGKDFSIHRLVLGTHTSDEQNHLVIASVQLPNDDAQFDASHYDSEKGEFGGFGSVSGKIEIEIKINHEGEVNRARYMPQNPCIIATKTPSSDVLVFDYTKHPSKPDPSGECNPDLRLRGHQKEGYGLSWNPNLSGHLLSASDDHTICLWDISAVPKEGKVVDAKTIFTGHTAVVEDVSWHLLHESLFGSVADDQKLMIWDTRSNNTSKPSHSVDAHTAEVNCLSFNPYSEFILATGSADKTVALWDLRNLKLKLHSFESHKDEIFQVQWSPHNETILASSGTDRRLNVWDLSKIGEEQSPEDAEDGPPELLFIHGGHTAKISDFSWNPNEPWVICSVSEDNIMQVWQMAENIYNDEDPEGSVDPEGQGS
Chain of Recombinant PRC2 (EZH2-Y641F) (Q6ZN18 whole entry partner): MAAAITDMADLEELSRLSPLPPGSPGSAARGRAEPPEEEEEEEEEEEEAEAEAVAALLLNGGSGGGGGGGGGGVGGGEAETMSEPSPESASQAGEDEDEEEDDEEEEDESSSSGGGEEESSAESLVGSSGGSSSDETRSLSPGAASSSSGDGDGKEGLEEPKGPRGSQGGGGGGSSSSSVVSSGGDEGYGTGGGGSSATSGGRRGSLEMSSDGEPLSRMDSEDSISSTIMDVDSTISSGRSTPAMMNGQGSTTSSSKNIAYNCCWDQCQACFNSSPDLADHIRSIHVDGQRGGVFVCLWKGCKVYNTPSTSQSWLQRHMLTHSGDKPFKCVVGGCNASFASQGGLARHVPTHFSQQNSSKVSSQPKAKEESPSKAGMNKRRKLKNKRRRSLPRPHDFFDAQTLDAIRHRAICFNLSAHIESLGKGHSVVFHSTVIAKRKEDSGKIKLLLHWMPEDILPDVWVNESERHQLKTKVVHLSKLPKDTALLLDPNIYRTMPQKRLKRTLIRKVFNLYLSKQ
Experimental: In Vitro Methyltransferase Activity Test
Recombinant PRC2 (EZH2-Y641F) was purchased from Active motif, S-adenosyl-methionine (SAM) and Poly-L-lysine (PLL) were purchased from Sigma-Aldrich, H3(1-50)K27mel polypeptide was purchased from Cisbio. LANCEUltra system (Perkinelmer) was used for detection. In the enzyme activity test, a compound to be tested was 1:3 diluted for 8 gradient points, added into a reaction plate, and then added 100 ng recombinant enzyme. And then a buffer [20 mM Tris pH8.5, 2 mM MgCl2, 0.01% Tween-20, 1 mM TCEP] containing 2.5 M SAM/250 nM H3(1-50)K27mel premixture was added to conduct an enzyme reaction at room tempreture. After reacted for 3 hours, a dection solution containing premixed PLL, detection antibody and Ulight was added, reacted for 1 h at RT, then fluorescence was read on Tecan infinite pro. IC50s were calculated by four-factor model fitting in a XLfit software.
A further assay relates to Pfeiffer cells. As to the kind of experiment: Cell proliferation test (cell counting kit-8, 6 days). It is filed as cell-based. The following applies: 6 days' growth. On the procedure: Cells were harvested by centrifuge and densities were determined using a CounterStar cell counter. Appropriate number of cells were plated in a 96-well culture plate and incubated overnight. Compounds to be tested were 1:3 diluted for 8 gradient points and added into corresponding wells. After 6 days' growth, cell counting kit-8 (Dojindo) was used to detect cell viability and absorbance values were read on Tecan infinite pro.
On the technique in general: Formazan colour is commonly taken as a measure of viable cells.

The mark [2] stands for this setting: EZH2 Y641F IC50, Recombinant PRC2 (EZH2-Y641F).

Read-outs that look alike come from different tables or passages of the source.

Usually IC50 stands for the concentration that inhibits the measured activity by half. With `CCN(c1cc(-c2cnc(N3CCOCC3)nc2)cc2c(NCc3c(C)cc(C)[nH]c3=O)nccc12)[C@H]1CC[C@H](N(C)C)CC1` [Compound Z-46], the IC50 turned out to be 0.014 µM in assay [1] (setting [2]) and 0.362 µM in the assay with Pfeiffer cells (Homo sapiens, Pfeiffer, 144 h).
For `CCN(c1cc(Cl)cc2c(NCc3c(OC)cc(C)[nH]c3=O)nccc12)C1CCC(N(C)C)CC1` (stereo not shown) [Compound Z-197] the same measures were 0.051 µM and 0.371 µM.
On to `CCN(c1c(F)c(-c2ccc(N3CCN(C)CC3)nc2)cc2c(NCc3c(C)cc(C)nc3O)nccc12)[C@H]1CC[C@H](N(C)C)CC1` [Compound Z-232, 3-((5-(((1R,4R)-4-(dimethylamino)cyclohexyl) (ethyl)amino)-6-fluoro-7-(6-(4-methylpiperazin-1-yl)pyridin-3-yl)isoquinolin-1-ylamino)methyl)-4,6-dimethyl-2(1H)-one], for which the IC50 in assay [1] (setting [2]) came out at 0.026 µM; in the assay on Pfeiffer cells (Homo sapiens, Pfeiffer, 144 h), 0.188 µM.
For the molecule `CCN(c1c(F)c(-c2ccc(N3CCN(C)CC3)nc2)cc2c(NCc3c(C)cc(C)[nH]c3=O)nccc12)C1CCOCC1` [Compound Z-224, 3-((5-(ethyl(tetrahydro-2H-pyran-4-yl)amino)-6-fluoro-7-(6-(4-methylpiperazin-1-yl)pyridin-3-yl)isoquinolin-1-ylamino)methyl)-4,6-dimethyl-2(1H)-one], the IC50 is 0.36 µM in assay [1] (setting [2]) and 0.605 µM in the assay with Pfeiffer cells (Homo sapiens, Pfeiffer, 144 h).
For `CCN(c1cc(-c2cnc(N3CCN(C)CC3)nc2)cc2c(NCc3c(C)cc(C)[nH]c3=O)nccc12)C1CCC(O)CC1` (stereo not shown) [Compound Z-89] the same measures were 0.043 µM and 0.401 µM.
In the same order, the values of `CCN(c1cc(-c2cccnc2)cc2c(NCc3c(C)cc(C)[nH]c3=O)nccc12)[C@H]1CC[C@@H](N(C)C)CC1` [Compound Z-64] are 0.009 µM and 0.357 µM.
For the molecule `CCN(c1cc(C#CCN2CCOCC2)cc2c(NCc3c(C)cc(C)[nH]c3=O)nccc12)[C@H]1CC[C@@H](N(C)C)CC1` [Compound Z-179], the IC50 was found to be 0.015 µM in assay [1] (read-out: EZH2 Y641F IC50, Recombinant PRC2 (EZH2-Y641F)) and 0.54 µM in the assay on Pfeiffer cells.
With `CCN(c1cc(-c2ccc(N3CCOCC3)nc2)cc2c(NCc3c(C)cc(C)[nH]c3=O)nccc12)C1CCC(N(C)C)CC1` (stereo not shown) [Compound Z-39], the IC50 in assay [1] (setting [2]) amounted to 0.016 µM; in the assay with Pfeiffer cells (Homo sapiens, Pfeiffer, 144 h) it was 0.507 µM.
For the molecule `CCN(CCN(C)C)c1cc(-c2ccc(N3CCN(C)CC3)nc2)cc2c(NCc3c(C)cc(C)[nH]c3=O)nccc12` [Compound Z-97], the IC50 in assay [1] (setting [2]) came out at 0.283 µM; in the assay with Pfeiffer cells (Homo sapiens, Pfeiffer, 144 h) it was 0.326 µM.
Regarding `CCN(c1cc(Cl)cc2c(NCc3c(C)cc(C)[nH]c3=O)nccc12)C1CC2CCC(C1)N2` (stereo not shown) [Compound Z-209], the IC50 in assay [1] (setting [2]) is 0.01 µM; in the assay with Pfeiffer cells (Homo sapiens, Pfeiffer, 144 h) it was 0.25 µM.
As for `CCN(c1cc(-c2cnc(N3CCOCC3)nc2)cc2c(NCc3c(C)cc(C)[nH]c3=O)nccc12)C1CCC(O)CC1` (stereo not shown) [Compound Z-99], the IC50 in assay [1] (setting [2]) was found to be 0.251 µM; in the assay on Pfeiffer cells (Homo sapiens, Pfeiffer, 144 h) it was 0.201 µM.
For `CCOc1cc(N(CC)C2CCC(N(C)C)CC2)c2ccnc(NCc3c(C)cc(C)[nH]c3=O)c2n1` (stereo not shown) [Compound Z-222, 3-((4-((4-(dimethylamino)cyclohexyl) (ethyl)amino)-2-ethoxy-1,7-naphthyridin-8-ylamino)methyl)-4,6-dimethyl-2(1H)-one], the IC50 amounted to 0.143 µM in assay [1] (setting [2]) and 0.484 µM in the assay with Pfeiffer cells (Homo sapiens, Pfeiffer, 144 h).
For `CCN(c1cc(-c2ccc(CN3CCN(C)C(=O)C3)nc2)cc2c(NCc3c(C)cc(C)[nH]c3=O)nccc12)C1CCOCC1` [Compound Z-114] the same measures were 0.084 µM and 0.788 µM.
As to `CCN(c1cc(-c2cnc(N3CCOCC3)nc2)cc2c(NCc3c(OC)cc(C)[nH]c3=O)nccc12)C1CCC(N(C)C)CC1` (stereo not shown) [Compound Z-192], the IC50 was determined as 0.042 µM in assay [1] (setting [2]) and 0.393 µM in the assay with Pfeiffer cells (Homo sapiens, Pfeiffer, 144 h).
